{"source": "patent US6531472B2", "about": "“Tetralone derivatives” (Hoffman-La Roche Inc., priority 2000, dated 2003)", "data": [{"test_system": "HDAC", "assay": "HDAC inhibition screening assay using an aminocoumarin derivative of an omega-acetylated lysine as substrate", "assay_type": "biochemical", "conditions": "compound concentration 10 nM", "method": "To measure the HDAC inhibitory properties of the compounds of the invention a screening assay was established using an aminocoumarin derivative of an omega-acetylated lysine as substrate for the enzyme. […] Using the protocol described therein, the inhibitory effect of the new compounds was determined at a concentration of 10 nM.", "units": {"Inhibitory effect at 10 nM in %": "%"}, "values": [{"smiles": "CCOC(=O)C1(CCCCCC(=O)NO)CCc2c(OC)cccc2C1=O", "note": "(stereo not drawn) [Example 9, 2-(5-hydroxycarbamoyl-pentyl)-5-methoxy-1-oxo-1,2,3,4-tetrahydro-naphtalene-2-carboxyclic acid ethyl ester]", "Inhibitory effect at 10 nM in %": 57}, {"smiles": "COc1ccc2c(c1)CCC(CCCCC(=O)NO)C2=O", "note": "(stereo not drawn) [Example 2, 5-(6-methoxy-1-oxo-1,2,3,4-tetrahydro-naphthalen-2-yl)-pentanoic acid hydroxyamide]", "Inhibitory effect at 10 nM in %": 64}, {"smiles": "CC1(CCCCCC(=O)NO)CCc2ccccc2C1=O", "note": "(stereo not drawn) [Example 4, 6-(2-methyl-1-oxo-1,2,3,4-tetrahydro-naphthalen-2-yl)-hexanoic acid hydroxyamide]", "Inhibitory effect at 10 nM in %": 71}, {"smiles": "COc1cccc2c1CCC(CCCCCC(=O)NO)C2=O", "note": "(stereo not drawn) [Example 8]", "Inhibitory effect at 10 nM in %": 72}, {"smiles": "CCOC(=O)C1(CCCCCCCC(=O)NO)CCc2c(C)cc(C)cc2C1=O", "note": "(stereo not drawn) [Example 10, 2-(7-Hydroxycarbamoyl-heptyl)-5,7-dimethyl-1-oxo-1,2,3,4-tetrahydro-naphtalene-2-carboxylic acid ethyl ester]", "Inhibitory effect at 10 nM in %": 55}, {"smiles": "CC1(/C=C/CCCC(=O)NO)CCc2ccccc2C1=O", "note": "(stereo not drawn) [Example 7, 6-(2-methyl-1-oxo-1,2,3,4-tetrahydro-naphthalen-2-yl)-hex-5-enoic acid hydroxyamide]", "Inhibitory effect at 10 nM in %": 60}]}]}
